Laboratory results taken from patent US6518318B1, “Stimulating transport of glucose into animal tissue by the administration of pinitol” (priority 1999, dated 2003).

How the values were obtained:
[1] = test system: L6 Myoblasts; assay: Glucose uptake (glucose transport) in cell culture; type: cell-based; conditions: for GLUCOSE TRANSPORT: Table 3, control 151
Experimental: Glucose transport was tested and measured in accordance with the protocol set forth in Amira Kip et al., Induction of Sugar Uptake Response to Insulin by Serum Depletion in Fusing L6 Myoblasts, American Journal of Physiology, Vol. 247, No. 3, Part 1 (September 1984), herein incorporated by reference, except that the cell culture was preincubated for only 2 hours and the cells treated with varying concentrations of pinitol, insulin or a combination thereof as set forth in Tables One through Three. The raw data, in terms of “counts per minute” as measured with a scintillation counter, is provided in Tables One and Two, while calculated data, in terms of “pmol min^−1 mg protein^−1,” is provided in Table Three.

[2] = test system: cells; assay: Glycogen formation (14-C glucose incorporation into ethanol-precipitable glycogen); type: cell-based
Experimental: The method for glycogen incorporation is similar to that of J. Berger and N. S. Hayes, Anal Biochem. 261: 159-163 (1998), one of several standard references for radiolabeled (14-C) glucose incorporation into ethanol-precipitable glycogen. Into each well was added 1.25 mil of 1% TritonX100. The wells were then placed on a rotating agitator for 30 minutes to dissolve the cells. A 1 ml sample was removed from each well and placed in a 10 ml plastic tube. Into each sample was added 1 ml of a solution containing 18% trichloroacetic acid and 2 mg/ml of glycogen (added as carrier). The treated samples were placed on ice for 20 minutes and then centrifuged for 10 minutes at 10,000 RPM with the supernatant transferred to new plastic tubes. The remaining solids were washed by adding 0.3 ml of the trichloracetic acid-glycogen solution to the pellet, and centrifuged again as before. The combined supernatants were added to 4 ml of ice cold ethanol and 0.25 ml of 2% sodium sulphate (to help precipitate glycogen, as in L. Y. Hung and L. A. Menahan, Biochemical Medicine, Vol. 24: 356-360 (1980)). This was left overnight at 4° C. The precipitate was collected the next day by centrilugation at 10,000 RPM for 10 min. The precipitate was redisolved in water (2 ml) and reprecipitated as before with ethanol and sodium sulphate. The precipitate was dissolved in water, added to scintillation fluid, and radioactivity determined.

[3] = Experiment Two, administered alone, at higher concentrations

CO[C@H]1[C@H](O)[C@@H](O)[C@@H](O)[C@H](O)[C@@H]1O [Pinitol] was tested, and the “stimulation of glucose transport (conclusion)” value [1, 3] was “significant stimulation in glucose transport”, the “COUNTS PER MINUTE (glucose uptake)” value ([1]; Table 1, Pinitol 0.14 mM, raw data, control 5185) was 5221 counts per minute and the “COUNTS PER MINUTE (glucose uptake)” value ([1]; Table 1, Pinitol 1.44 mM, raw data, control 5185) was 6009 counts per minute. For the same compound, the “COUNTS PER MINUTE (glucose uptake)” value ([1]; Table 2, Pinitol 1.0 mM, control 3178) was 6007 counts per minute, the “GLUCOSE TRANSPORT” value ([1]; Pinitol 0.14 mM, calculated data) was 155 pmol · min^−1 · mg protein^−1 and the “stimulation of glucose transport (conclusion)” value ([1]; alone, higher concentrations (e.g., 1.44 mM)) was “significant stimulation in glucose transport”. The “stimulation of glucose transport (conclusion)” value ([1]; alone, low concentrations (e.g., 0.14 mM)) was “does not meaningfully stimulate glucose transport”, the “GLYCOGEN FORMATION 1st Set” value ([2]; Table 4, Pinitol 1.4 mM) was 68.36 nmol/min/mg and the “GLYCOGEN FORMATION 2nd Set” value ([2]; Table 4, Pinitol 1.4 mM) was 79.08 nmol/min/mg. The “GLYCOGEN FORMATION 3rd Set” value ([2]; Table 4, Pinitol 1.4 mM) was 64.37 nmol/min/mg, the “GLYCOGEN FORMATION Average” value ([2]; Table 4, Pinitol 1.4 mM, control 52.44 ± 4.58) was 70.60 ± 7.61 nmol/min/mg and the “GLYCOGEN FORMATION 1st Set” value ([2]; Table 4, Pinitol 144.0 mM) was 57.75 nmol/min/mg. For the same compound, the “GLYCOGEN FORMATION 2nd Set” value ([2]; Table 4, Pinitol 144.0 mM) was 83.14 nmol/min/mg, the “GLYCOGEN FORMATION 3rd Set” value ([2]; Table 4, Pinitol 144.0 mM) was 64.24 nmol/min/mg and the “GLYCOGEN FORMATION Average” value ([2]; Table 4, Pinitol 144.0 mM, control 52.44 ± 4.58) was 68.38 ± 13.19 nmol/min/mg. For the same compound, the “GLYCOGEN FORMATION 1st Set” value ([2]; Table Five, Pinitol 1.4 mM) was 102.40 nmol/min/mg, the “GLYCOGEN FORMATION 2nd Set” value ([2]; Table Five, Pinitol 1.4 mM) was 117.18 nmol/min/mg and the “GLYCOGEN FORMATION 3rd Set” value ([2]; Table Five, Pinitol 1.4 mM) was 183.05 nmol/min/mg. For the same compound, the “GLYCOGEN FORMATION 4th Set” value ([2]; Table Five, Pinitol 1.4 mM) was 113.15 nmol/min/mg, the “GLYCOGEN FORMATION 5th Set” value ([2]; Table Five, Pinitol 1.4 mM) was 124.64 nmol/min/mg and the “GLYCOGEN FORMATION 6th Set” value ([2]; Table Five, Pinitol 1.4 mM) was 158.40 nmol/min/mg. For the same compound, the “GLYCOGEN FORMATION Average” value ([2]; Table Five, Pinitol 1.4 mM, control 130.18 ± 20.87) was 133.14 ± 30.99 nmol/min/mg, the “GLYCOGEN FORMATION 1st Set” value ([2]; Table Five, Pinitol 144 mM) was 123.03 nmol/min/mg and the “GLYCOGEN FORMATION 2nd Set” value ([2]; Table Five, Pinitol 144 mM) was 211.04 nmol/min/mg. The “GLYCOGEN FORMATION 3rd Set” value ([2]; Table Five, Pinitol 144 mM) was 146.53 nmol/min/mg, the “GLYCOGEN FORMATION 4th Set” value ([2]; Table Five, Pinitol 144 mM) was 192.74 nmol/min/mg and the “GLYCOGEN FORMATION 5th Set” value ([2]; Table Five, Pinitol 144 mM) was 97.05 nmol/min/mg. For the same compound, the “GLYCOGEN FORMATION 6th Set” value ([2]; Table Five, Pinitol 144 mM) was 199.85 nmol/min/mg, the “GLYCOGEN FORMATION Average” value ([2]; Table Five, Pinitol 144 mM, control 130.18 ± 20.87) was 161.71 ± 46.39 nmol/min/mg and the “stimulation of glycogen formation (conclusion)” value ([2]; administered alone) was “significant stimulation in glycogen formation”.
In the case of “Insulin: insulin, used to treat the cells alone or with pinitol as comparison”, the “stimulation of glucose transport (conclusion)” value [1, 3] is reported as “significant stimulation in glucose transport”, the “COUNTS PER MINUTE (glucose uptake)” value ([1]; Table 2, Insulin 10^−3 mM, control 3178) is reported as 4477 counts per minute and the “GLUCOSE TRANSPORT” value ([1]; Insulin 10^−5 mM) is reported as 200 pmol · min^−1 · mg protein^−1. For the same compound, the “GLYCOGEN FORMATION 1st Set” value ([2]; Table 4, Insulin 10^−6 mM) was 136.27 nmol/min/mg, the “GLYCOGEN FORMATION 2nd Set” value ([2]; Table 4, Insulin 10^−6 mM) was 96.14 nmol/min/mg and the “GLYCOGEN FORMATION 3rd Set” value ([2]; Table 4, Insulin 10^−6 mM) was 212.09 nmol/min/mg. The “GLYCOGEN FORMATION Average” value ([2]; Table 4, Insulin 10^−6 mM, control 52.44 ± 4.58) was 148.17 ± 58.89 nmol/min/mg, the “GLYCOGEN FORMATION 1st Set” value ([2]; Table 4, Insulin 10^−8 mM) was 68.45 nmol/min/mg and the “GLYCOGEN FORMATION 2nd Set” value ([2]; Table 4, Insulin 10^−8 mM) was 75.36 nmol/min/mg. The “GLYCOGEN FORMATION Average” value ([2]; Table 4, Insulin 10^−8 mM, control 52.44 ± 4.58) was 71.90 ± 4.89 nmol/min/mg, the “GLYCOGEN FORMATION 1st Set” value ([2]; Table Five, Insulin 10^−7 M) was 186.52 nmol/min/mg and the “GLYCOGEN FORMATION 2nd Set” value ([2]; Table Five, Insulin 10^−7 M) was 179.88 nmol/min/mg. The “GLYCOGEN FORMATION 3rd Set” value ([2]; Table Five, Insulin 10^−7 M) was 79.32 nmol/min/mg, the “GLYCOGEN FORMATION 4th Set” value ([2]; Table Five, Insulin 10^−7 M) was 167.44 nmol/min/mg and the “GLYCOGEN FORMATION 5th Set” value ([2]; Table Five, Insulin 10^−7 M) was 136.35 nmol/min/mg. For the same compound, the “GLYCOGEN FORMATION Average” value ([2]; Table Five, Insulin 10^−7 M, control 130.18 ± 20.87) was 149.90 ± 43.91 nmol/min/mg.
